# US10695337B2, “Piperidin-4-yl azetidine derivatives as JAK1 inhibitors” (Incyte Corporation, priority 2010, dated 2020)
# Biological target: human JAK1 (a.a. 837-1142)
# Assay: In vitro JAK kinase assay (HTRF, phosphorylation of a biotinylated peptide), JAK1
# Assay type: biochemical
# Conditions: measured at 1 mM ATP; JAK2 IC50 / JAK1 IC50
# Summary of the method: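 N-terminal His-tagged catalytic domains, baculovirus-expressed in insect cells, phosphorylated a biotinylated peptide for 1 hr at room temperature. EDTA stop was followed by SA-APC and Eu-Py20 antibody for 40 minutes, with phosphopeptide read by HTRF.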
row,Structure (SMILES),IC50 Ratio JAK2/JAK1
1,"Cn1ccc(S(=O)(=O)N2CCC(N3CC(CC#N)(n4cc(-c5ncnc6[nH]ccc56)cn4)C3)CC2)n1 [Example 251, {1-{1-[(1-methyl-1H-pyrazol-3-yl)sulfonyl]piperidin-4-yl}-3-[4-(7H-pyrrolo[2,3-d]pyrimidin-4-yl)-1H-pyrazol-1-yl]azetidin-3-yl}acetonitrile]",4.9
2,"N#CCC1(n2cc(-c3ncnc4[nH]ccc34)cn2)CN(C2CCN(S(=O)(=O)C3CCCC3)CC2)C1 [Example 253, {1-[1-(cyclopentylsulfonyl)piperidin-4-yl]-3-[4-(7H-pyrrolo[2,3-d]pyrimidin-4-yl)-1H-pyrazol-1-yl]azetidin-3-yl}acetonitrile]",5.8
3,"Cn1cnc(S(=O)(=O)N2CCC(N3CC(CC#N)(n4cc(-c5ncnc6[nH]ccc56)cn4)C3)CC2)c1 [Example 258, {1-{1-[(1-methyl-1H-imidazol-4-yl)sulfonyl]piperidin-4-yl}-3-[4-(7H-pyrrolo[2,3-d]pyrimidin-4-yl)-1H-pyrazol-1-yl]azetidin-3-yl}acetonitrile]",5.0
4,"Cc1nc(S(=O)(=O)N2CCC(N3CC(CC#N)(n4cc(-c5ncnc6[nH]ccc56)cn4)C3)CC2)cn1C [Example 259, {1-{1-[(1,2-dimethyl-1H-imidazol-4-yl)sulfonyl]piperidin-4-yl}-3-[4-(7H-pyrrolo[2,3-d]pyrimidin-4-yl)-1H-pyrazol-1-yl]azetidin-3-yl}acetonitrile]",4.6
5,"Cc1noc(C)c1S(=O)(=O)N1CCC(N2CC(CC#N)(n3cc(-c4ncnc5[nH]ccc45)cn3)C2)CC1 [Example 260, {1-{1-[(3,5-dimethylisoxazol-4-yl)sulfonyl]piperidin-4-yl}-3-[4-(7H-pyrrolo[2,3-d]pyrimidin-4-yl)-1H-pyrazol-1-yl]azetidin-3-yl}acetonitrile]",7.1
6,"N#CCC1(n2ccc(-c3ncnc4[nH]ccc34)c2)CN(C2CCN(C(=O)c3cccc(C#N)c3)CC2)C1 [Example 262, 3-[(4-{3-(cyanomethyl)-3-[3-(7H-pyrrolo[2,3-d]pyrimidin-4-yl)-1H-pyrrol-1-yl]azetidin-1-yl}piperidin-1-yl)carbonyl]benzonitrile]",7.4
7,"N#CCC1(n2ccc(-c3ncnc4[nH]ccc34)c2)CN(C2CCN(C(=O)c3ccc(C#N)cc3F)CC2)C1 [Example 264, 4-[(4-{3-(cyanomethyl)-3-[3-(7H-pyrrolo[2,3-d]pyrimidin-4-yl)-1H-pyrrol-1-yl]azetidin-1-yl}piperidin-1-yl)carbonyl]-3-fluorobenzonitrile]",9.5
8,"N#CCC1(n2ccc(-c3ncnc4[nH]ccc34)c2)CN(C2CCN(C(=O)c3c(F)cc(C#N)cc3F)CC2)C1 [Example 265, 4-[(4-{3-(cyanomethyl)-3-[3-(7H-pyrrolo[2,3-d]pyrimidin-4-yl)-1H-pyrrol-1-yl]azetidin-1-yl}piperidin-1-yl)carbonyl]-3,5-difluorobenzonitrile]",6.6
9,"N#CCC1(n2ccc(-c3ncnc4[nH]ccc34)c2)CN(C2CCN(C(=O)c3cccc(C(F)(F)F)c3)CC2)C1 [Example 268, (3-[3-(7H-pyrrolo[2,3-d]pyrimidin-4-yl)-1H-pyrrol-1-yl]-1-{1-[3-(trifluoromethyl)benzoyl]piperidin-4-yl}azetidin-3-yl)acetonitrile]",3.1
10,"N#CCC1(n2ccc(-c3ncnc4[nH]ccc34)c2)CN(C2CCN(C(=O)c3c(F)ccc(F)c3F)CC2)C1 [Example 270, {3-[3-(7H-pyrrolo[2,3-d]pyrimidin-4-yl)-1H-pyrrol-1-yl]-1-[1-(2,3,6-trifluorobenzoyl)piperidin-4-yl]azetidin-3-yl}acetonitrile]",6.1
11,"N#CCC1(n2ccc(-c3ncnc4[nH]ccc34)c2)CN(C2CCN(C(=O)c3cccs3)CC2)C1 [Example 271, {3-[3-(7H-pyrrolo[2,3-d]pyrimidin-4-yl)-1H-pyrrol-1-yl]-1-[1-(2-thienylcarbonyl)piperidin-4-yl]azetidin-3-yl}acetonitrile]",7.8
12,"N#CCC1(n2ccc(-c3ncnc4[nH]ccc34)c2)CN(C2CCN(C(=O)c3cc(F)cc(C(F)(F)F)c3)CC2)C1 [Example 274, {1-{1-[3-fluoro-5-(trifluoromethyl)benzoyl]piperidin-4-yl}-3-[3-(7H-pyrrolo[2,3-d]pyrimidin-4-yl)-1H-pyrrol-1-yl]azetidin-3-yl}acetonitrile]",9.0
13,"N#CCC1(n2ccc(-c3ncnc4[nH]ccc34)c2)CN(C2CCN(C(=O)c3ccc(F)c(F)c3)CC2)C1 [Example 277, {1-[1-(3,4-difluorobenzoyl)piperidin-4-yl]-3-[3-(7H-pyrrolo[2,3-d]pyrimidin-4-yl)-1H-pyrrol-1-yl]azetidin-3-yl}acetonitrile]",9.8
14,"N#CCC1(n2ccc(-c3ncnc4[nH]ccc34)c2)CN(C2CCN(C(=O)c3c(F)cccc3F)CC2)C1 [Example 279, {1-[1-(2,6-difluorobenzoyl)piperidin-4-yl]-3-[3-(7H-pyrrolo[2,3-d]pyrimidin-4-yl)-1H-pyrrol-1-yl]azetidin-3-yl}acetonitrile]",4.1
15,"N#CCC1(n2ccc(-c3ncnc4[nH]ccc34)c2)CN(C2CCN(C(=O)c3ccc(O)c(C(F)(F)F)c3)CC2)C1 [Example 282, {1-{1-[4-hydroxy-3-(trifluoromethyl)benzoyl]piperidin-4-yl}-3-[3-(7H-pyrrolo[2,3-d]pyrimidin-4-yl)-1H-pyrrol-1-yl]azetidin-3-yl}acetonitrile]",3.4
16,"COc1ncccc1NC(=O)N1CCC(N2CC(CC#N)(n3ccc(-c4ncnc5[nH]ccc45)c3)C2)CC1 [Example 284, 4-{3-(cyanomethyl)-3-[3-(7H-pyrrolo[2,3-d]pyrimidin-4-yl)-1H-pyrrol-1-yl]azetidin-1-yl}-N-(2-methoxypyridin-3-yl)piperidine-1-carboxamide]",5.8
17,"Cc1nc(C(F)(F)F)ccc1NC(=O)N1CCC(N2CC(CC#N)(n3ccc(-c4ncnc5[nH]ccc45)c3)C2)CC1 [Example 285, 4-{3-(cyanomethyl)-3-[3-(7H-pyrrolo[2,3-d]pyrimidin-4-yl)-1H-pyrrol-1-yl]azetidin-1-yl}-N-[2-methyl-6-(trifluoromethyl)pyridin-3-yl]piperidine-1-carboxamide]",5.7

# Second part, the molecule after the results:
row,IC50 Ratio JAK2/JAK1,Structure (SMILES)
1,6.6,"N#CCC1(n2ccc(-c3ncnc4[nH]ccc34)c2)CN(C2CCN(C(=O)c3cc(F)ccc3C(F)(F)F)CC2)C1 [Example 266, {1-{1-[5-fluoro-2-(trifluoromethyl)benzoyl]piperidin-4-yl}-3-[3-(7H-pyrrolo[2,3-d]pyrimidin-4-yl)-1H-pyrrol-1-yl]azetidin-3-yl}acetonitrile]"
2,6.6,"N#CCC1(n2ccc(-c3ncnc4[nH]ccc34)c2)CN(C2CCN(C(=O)c3ccc(C(F)(F)F)c(F)c3)CC2)C1 [Example 267, {1-{1-[3-fluoro-4-(trifluoromethyl)benzoyl]piperidin-4-yl}-3-[3-(7H-pyrrolo[2,3-d]pyrimidin-4-yl)-1H-pyrrol-1-yl]azetidin-3-yl}acetonitrile]"
3,5.0,N#CCC1(n2ccc(-c3ncnc4[nH]ccc34)c2)CN(C2CCN(C(=O)c3cc(OC(F)(F)F)ccc3F)CC2)C1 [Example 269]
4,6.5,"N#CCC1(n2ccc(-c3ncnc4[nH]ccc34)c2)CN(C2CCN(C(=O)c3ccc(C(F)(F)F)cc3F)CC2)C1 [Example 272, {1-{1-[2-fluoro-4-(trifluoromethyl)benzoyl]piperidin-4-yl}-3-[3-(7H-pyrrolo[2,3-d]pyrimidin-4-yl)-1H-pyrrol-1-yl]azetidin-3-yl}acetonitrile]"
5,4.4,"N#CCC1(n2ccc(-c3ncnc4[nH]ccc34)c2)CN(C2CCN(C(=O)c3cc(C(F)(F)F)ccc3F)CC2)C1 [Example 273, {1-{1-[2-fluoro-5-(trifluoromethyl)benzoyl]piperidin-4-yl}-3-[3-(7H-pyrrolo[2,3-d]pyrimidin-4-yl)-1H-pyrrol-1-yl]azetidin-3-yl}acetonitrile]"
6,3.1,"N#CCC1(n2ccc(-c3ncnc4[nH]ccc34)c2)CN(C2CCN(C(=O)c3ccc(F)c(C(F)(F)F)c3)CC2)C1 [Example 275, {1-{1-[4-fluoro-3-(trifluoromethyl)benzoyl]piperidin-4-yl}-3-[3-(7H-pyrrolo[2,3-d]pyrimidin-4-yl)-1H-pyrrol-1-yl]azetidin-3-yl}acetonitrile]"
7,4.0,"N#CCC1(n2ccc(-c3ncnc4[nH]ccc34)c2)CN(C2CCN(C(=O)c3cccc(F)c3F)CC2)C1 [Example 276, {1-[1-(2,3-difluorobenzoyl)piperidin-4-yl]-3-[3-(7H-pyrrolo[2,3-d]pyrimidin-4-yl)-1H-pyrrol-1-yl]azetidin-3-yl}acetonitrile]"
8,5.6,"N#CCC1(n2ccc(-c3ncnc4[nH]ccc34)c2)CN(C2CCN(C(=O)c3cc(F)ccc3F)CC2)C1 [Example 278, {1-[1-(2,5-difluorobenzoyl)piperidin-4-yl]-3-[3-(7H-pyrrolo[2,3-d]pyrimidin-4-yl)-1H-pyrrol-1-yl]azetidin-3-yl}acetonitrile]"
9,7.5,"N#CCC1(n2ccc(-c3ncnc4[nH]ccc34)c2)CN(C2CCN(C(=O)c3ccc(F)c(F)c3F)CC2)C1 [Example 280, {3-[3-(7H-pyrrolo[2,3-d]pyrimidin-4-yl)-1H-pyrrol-1-yl]-1-[1-(2,3,4-trifluorobenzoyl)piperidin-4-yl]azetidin-3-yl}acetonitrile]"
10,10.0,"N#CCC1(n2ccc(-c3ncnc4[nH]ccc34)c2)CN(C2CCN(C(=O)c3cccc(OC(F)(F)F)c3F)CC2)C1 [Example 281, {1-{1-[2-fluoro-3-(trifluoromethoxy)benzoyl]piperidin-4-yl}-3-[3-(7H-pyrrolo[2,3-d]pyrimidin-4-yl)-1H-pyrrol-1-yl]azetidin-3-yl}acetonitrile]"
